Laboratory results taken from PMC9610999, “Itraconazole-Induced Increases in Gilteritinib Exposure Are Mediated by CYP3A and OATP1B” (Molecules, 2022).

What was measured:
human OATP1B1 (SLCO1B1) = target: T1, human OATP1B1 (SLCO1B1) (Homo sapiens, UniProt Q9Y6L6); experiment: Transport inhibition assay: EβG uptake in OATP1B1 overexpressing HEK293 cells; assay type: cell-based; conditions: OATP1B1 overexpressing HEK293 cells vs vector control; radiolabeled EβG; 15 min pre-incubation; read-out: IC50, inhibition of OATP1B1-mediated cellular accumulation of EβG
T1 construct: expressed in transfected cells; host or cells: HEK293
T1 sequence (Q9Y6L6 1-691): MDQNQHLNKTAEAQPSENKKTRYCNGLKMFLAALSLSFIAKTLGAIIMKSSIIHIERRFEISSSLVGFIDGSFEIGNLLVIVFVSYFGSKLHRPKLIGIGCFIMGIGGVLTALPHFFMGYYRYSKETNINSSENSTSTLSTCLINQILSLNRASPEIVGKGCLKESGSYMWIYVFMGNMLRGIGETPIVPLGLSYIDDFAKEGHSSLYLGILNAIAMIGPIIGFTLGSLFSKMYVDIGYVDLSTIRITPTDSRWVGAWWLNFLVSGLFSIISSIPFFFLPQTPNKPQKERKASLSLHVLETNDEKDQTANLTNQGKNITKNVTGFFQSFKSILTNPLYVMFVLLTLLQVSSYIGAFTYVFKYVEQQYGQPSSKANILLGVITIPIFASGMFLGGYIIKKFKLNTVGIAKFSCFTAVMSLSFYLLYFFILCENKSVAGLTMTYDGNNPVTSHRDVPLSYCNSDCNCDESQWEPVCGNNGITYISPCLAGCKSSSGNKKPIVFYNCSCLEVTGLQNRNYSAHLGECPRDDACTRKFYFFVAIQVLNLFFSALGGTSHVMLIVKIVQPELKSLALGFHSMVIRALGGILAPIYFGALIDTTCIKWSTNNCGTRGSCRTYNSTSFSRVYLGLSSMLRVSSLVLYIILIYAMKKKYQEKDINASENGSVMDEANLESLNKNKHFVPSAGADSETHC
Procedure: Human embryonic kidney (HEK293) cells stably transfected with human OATP1B1 (SLCO1B1) cDNA, or an empty control vector were established and cultured as previously described. Cells were maintained in DMEM supplemented with 10% FBS, 50 µg/mL hygromycin B, 15 µg/mL blasticidin, and maintained in a humidified incubator at 37 °C with 5% CO2. Prior to plating, 24-well tissue culture plates (Thermo Fisher Scientific) were coated with poly-d-lysine. Seeding media was prepared using phenol red-free DMEM with 10% FBS with no selection agents. To the seeding media, […] of doxycycline was added to induce expression of OATP1B1.
OATP1B1 overexpressing cells and vector control cells were plated in 24-well tissue culture plates at a volume of 0.5 mL (containing 2 × 10^6 cells/mL) per well. Plates were returned to an incubator at 37 °C and transport assays were conducted 24 h later. Transport activity was measured using EβG, a prototypical substrate of OATP1B1. Experiments were conducted using phenol red- and serum-free DMEM. Intracellular levels of total radioactivity originating from EβG were assessed by liquid scintillation counting. The resulting counts were normalized to total protein levels as determined by a Pierce protein assay. The influence of gilteritinib, itraconazole, keto-itraconazole, or hydroxy-itraconazole on OATP1B1-mediated transport was assessed following a 15 min pre-incubation at various concentrations of test inhibitors followed by co-incubation of test inhibitors with EβG. Inhibition of transport activity by gilteritinib was determined by comparing the accumulation of EβG in the presence of gilteritinib, itraconazole, keto-itraconazole, or hydroxy-itraconazole to that of EβG in the presence of only the control vehicle, DMSO. The final concentration of DMSO in media was less than 0.2% in all in vitro experiments.

[1] = system: CDCA-24G, an endogenous biomarker of OATP1B transporter function; experiment: Plasma CDCA-24G (endogenous biomarker of OATP1B function) in mice treated with itraconazole; assay type: in vivo
[2] = system: OATP1B biomarkers coproporphyrin (CP) I and CPIII; parameters: method as in PMID 34049965, PMID 29777022; conditions: itraconazole 100 mg to human subjects; cited from earlier work

IC50 (human OATP1B1 (SLCO1B1)) [µM]	SMILES	CDCA-24G AUC0–4h ([1]; 100 mg/kg)	CDCA-24G AUC0–4h ([1]; CYP3A(−/−) female mice, itraconazole 100 mg/kg)	CDCA-24G AUC Fold Increase ([1]; CYP3A(−/−) mice, itraconazole 100 mg/kg, vs. CYP3A(−/−) untreated) [fold]	CDCA-24G AUC Fold Increase ([1]; CYP3A(−/−) mice, itraconazole 100 mg/kg, vs. WT Alone) [fold]	CDCA-24G AUC Fold Increase ([1]; Wild-type FVB mice, itraconazole 100 mg/kg, vs. CYP3A(−/−) + Itraconazole) [fold]	CDCA-24G AUC Fold Increase ([1]; Wild-type FVB mice, itraconazole 100 mg/kg, vs. WT untreated) [fold]	Effect on circulating levels of coproporphyrin (CP) I and CPIII [2]
27.3	CCC(C)n1ncn(-c2ccc(N3CCN(c4ccc(OCC5COC(Cn6cncn6)(c6ccc(Cl)cc6Cl)O5)cc4)CC3)cc2)c1=O (stereo not shown) [Itraconazole]	5.10 (±1.60) ng ∗ h/mL	3.30 (±1.00) ng ∗ h/mL	1	0.9	1.5	1.3	not associated with changes
2.95	CC(O)C(C)n1ncn(-c2ccc(N3CCN(c4ccc(OCC5COC(Cn6cncn6)(c6ccc(Cl)cc6Cl)O5)cc4)CC3)cc2)c1=O (stereo not shown) [hydroxy-itraconazole]							

SMILES	IC50 (human OATP1B1 (SLCO1B1)) [µM]	CDCA-24G AUC0–4h ([1]; 100 mg/kg)	CDCA-24G AUC0–4h ([1]; CYP3A(−/−) female mice, itraconazole 100 mg/kg)	CDCA-24G AUC Fold Increase ([1]; CYP3A(−/−) mice, itraconazole 100 mg/kg, vs. CYP3A(−/−) untreated) [fold]	CDCA-24G AUC Fold Increase ([1]; CYP3A(−/−) mice, itraconazole 100 mg/kg, vs. WT Alone) [fold]	CDCA-24G AUC Fold Increase ([1]; Wild-type FVB mice, itraconazole 100 mg/kg, vs. CYP3A(−/−) + Itraconazole) [fold]	CDCA-24G AUC Fold Increase ([1]; Wild-type FVB mice, itraconazole 100 mg/kg, vs. WT untreated) [fold]	Effect on circulating levels of coproporphyrin (CP) I and CPIII [2]
CC(=O)C(C)n1ncn(-c2ccc(N3CCN(c4ccc(OC[C@H]5CO[C@](Cn6cncn6)(c6ccc(Cl)cc6Cl)O5)cc4)CC3)cc2)c1=O (stereo partly shown) [keto-itraconazole]	7.5							
